Calls of active or inactive are those of the source. No cut-off for these calls is given here.
Legend:
[1] = TNF-alpha stimulatory activity in B78/TNF/9 melanoma cells evaluated by ELISA method; format: functional, Mus musculus; design: concentration or dose not given beside the values
[2] = Tested for the ability to stimulate TNF-alpha production in B78-H1 murine melanoma cells transduced with gene for human TNF-alpha, clone-9 at 10 uM concentration; format: functional, Mus musculus
Mus musculus [3] = organism: Mus musculus; test: Tested for the ability to stimulate TNF-alpha production in B78-H1 murine melanoma cells transduced with gene for human TNF-alpha, clone-9 at 10 uM concentration; In active; format: functional
Mus musculus [4] = organism: Mus musculus; test: Tested for the ability to stimulate TNF-alpha production in B78-H1 murine melanoma cells transduced with gene for human TNF-alpha, clone-9 at 10 nM concentration; In active; format: functional

| SMILES | TNF-alpha production (% of control) [1] [%] | other results |
| --- | --- | --- |
| c1cnc(NC23CC4CC(CC(C4)C2)C3)nc1 | ~200 |  |
| Cc1cccc(NC23CC4CC(CC(C4)C2)C3)n1 | ~260 | Enhancement [2]: 10% |
| Brc1ccc(NC23CC4CC(CC(C4)C2)C3)nc1 | ~140 |  |
| Cc1ccc(NC23CC4CC(CC(C4)C2)C3)nc1 | ~200 |  |
| Brc1cnc(NC23CC4CC(CC(C4)C2)C3)nc1 | ~150 |  |
| NC12CC3CC(CC(C3)C1)C2 |  | Enhancement (Mus musculus [3]): inactive |
| Cc1cc(C)nc(NC23CC4CC(CC(C4)C2)C3)n1 | ~240 | Enhancement (Mus musculus [4]): inactive |
| Cc1ccnc(NC23CC4CC(CC(C4)C2)C3)c1 | ~200 |  |
| Cc1cc(C)nc(NC23CC4CC(CC(C4)C2)C3)c1 | ~250 | Enhancement (Mus musculus [3]): inactive |
| Cc1cc(Cl)nc(NC23CC4CC(CC(C4)C2)C3)n1 | ~220 |  |
| Cc1cc(N)nc(NC23CC4CC(CC(C4)C2)C3)n1 | ~180 |  |
| c1cncc(NC23CC4CC(CC(C4)C2)C3)c1 | ~190 |  |
| c1ccc(NC23CC4CC(CC(C4)C2)C3)nc1 | ~170 | Enhancement (Mus musculus [3]): inactive |
| c1cc(NC23CC4CC(CC(C4)C2)C3)ccn1 | ~130 |  |
| Clc1ccc(NC23CC4CC(CC(C4)C2)C3)cn1 | ~100 |  |
